# Measured values published in patent US8889696B2, “Substituted pyrido[2,3-d]pyrimidin-7(8H)-ones and therapeutic uses thereof” (Temple University—Of The Commonwealth System Of Higher …, priority 2009, dated 2014).
# Key:
# [1] = tested on: CD-1 female mice; assay: Toxicity study in mice; assay type: in vivo
# Experimental: . DMSO was used as a placebo. Three CD-1 female mice were used per group. Drugs were administered intraperitoneally at 100 mg/kg. Viability, signs of toxicity and body weight were monitored over the next 7 days. […]. […] Comparative body weight studies could not be carried out for this compound due to the early death of animals. These observations agree with the known toxicity of BI-2536. […]. Following this treatment, 100% survival for >10 days after injection was observed. […]
# [2] = tested on: DU145 (prostate cancer); assay: Effect on tumor cell lines (Latham assay), DU145; assay type: cell-based; settings: Homo sapiens, DU-145; DU145 cells, examined 96 hours after treatment; read-out: Potencies (IC50) DU 145
# Experimental: (§1) The plated cells were treated 24 hours later with a compound of the invention dissolved in DMSO at multiple concentrations ranging from 0.01 μM to 100 μM. […] When necessary, the total number of viable cells was determined by trypsinizing the wells and counting the number of viable cells, as determined by trypan blue exclusion, using a hemacytometer.
# [3] = tested on: K562 (chronic myelogenous leukemia); assay: Effect on tumor cell lines (Latham assay), K562; assay type: cell-based; settings: Homo sapiens; K562 cells, examined 96 hours after treatment; read-out: Potencies (IC50) K 562
# Experimental: as §1
# [4] = tested on: hMSC (human marrow stem cell); assay: Normal cell killing, hMSC; assay type: cell-based; settings: concentration 5-fold higher than a concentration that resulted in tumor cell killing
# Experimental: (§2) The effect of the compounds of the invention on tumor cells was determined by the assay described by Latham et al., Oncogene 12:827-837 (1996). Tumor cells K562 (chronic myelogenous leukemia; leukemia cell line +ve for Bcr-Abl) or DU145 (prostate cancer) were plated in 12-well dishes at a cell density of 2.5×10^4 cells well. The plated cells were treated 24 hours later with a compound of the invention dissolved in DMSO at multiple concentrations ranging from 0.01 μM to 100 μM. The plates were examined 96 hours later under an inverted microscope, Olympus CK-2 using an 10× objective, and compound activity was noted by physical observation. When necessary, the total number of viable cells was determined by trypsinizing the wells and counting the number of viable cells, as determined by trypan blue exclusion, using a hemacytometer.
# (§3) Utilizing a similar procedure, the compounds of Example 12 and Example 40 were tested on two normal cell lines: HFL (human fibroblast) and hMSC (human marrow stem cell).
# [5] = tested on: HFL (human fibroblast); assay: Normal cell killing, HFL; assay type: cell-based; settings: concentration 5-fold higher than a concentration that resulted in tumor cell killing
# Experimental: as §2, §3
# [6] = tested on: HFL; assay: Viable cell count GI50 (Table 4); assay type: cell-based, human; settings: Normal, 96 h continuous treatment, trypan blue
# Experimental: (§4) Cells (1×10^5) were plated into 6-well dishes and 24 h later test compound was added at five different concentrations over a 2 log dilution (1-100 μM). The total number of viable cells was determined after 96 h of continuous treatment by staining with trypan blue and counting the number of non-staining cells (viable) remaining in each well using a hemacytometer. The percentage of viable cells remaining was calculated as follows: # viable cells (compound treated)/# viable cells (DMSO treated)*100.
# [7] = tested on: tumor cells; assay: Apoptosis induction in tumor cells; assay type: cell-based
# [8] = molecular target: T1, PLK2 (Homo sapiens (Human), UniProt Q9NYY3); assay: Affinity analysis with biotinylated compound, streptavidin pull-down from U2OS lysates, anti-Plk2 Western blot; assay type: binding; settings: FIG. 2
# T1 sequence (Q9NYY3 whole entry): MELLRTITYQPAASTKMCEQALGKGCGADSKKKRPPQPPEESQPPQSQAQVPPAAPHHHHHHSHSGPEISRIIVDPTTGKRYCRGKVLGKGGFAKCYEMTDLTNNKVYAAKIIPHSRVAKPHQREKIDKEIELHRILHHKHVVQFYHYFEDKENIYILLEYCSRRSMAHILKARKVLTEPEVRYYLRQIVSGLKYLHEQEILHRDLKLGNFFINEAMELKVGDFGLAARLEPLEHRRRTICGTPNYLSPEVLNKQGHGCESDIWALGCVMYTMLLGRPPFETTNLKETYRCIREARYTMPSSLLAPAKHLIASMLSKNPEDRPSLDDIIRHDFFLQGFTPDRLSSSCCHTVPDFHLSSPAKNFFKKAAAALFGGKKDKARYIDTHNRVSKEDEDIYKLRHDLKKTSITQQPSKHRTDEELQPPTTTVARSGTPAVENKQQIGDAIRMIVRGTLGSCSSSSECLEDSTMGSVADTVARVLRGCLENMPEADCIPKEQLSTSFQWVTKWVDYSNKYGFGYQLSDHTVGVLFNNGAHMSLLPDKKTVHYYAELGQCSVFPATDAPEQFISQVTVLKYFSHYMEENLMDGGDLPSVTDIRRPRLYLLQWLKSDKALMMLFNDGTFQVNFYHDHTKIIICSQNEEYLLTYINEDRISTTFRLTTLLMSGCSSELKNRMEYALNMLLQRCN
# Experimental: Increasing concentrations of a biotinylated form of the compound were incubated with U2OS lysates. Streptavidin-conjugated agarose beads were utilized to pull down the biotinylated compound in complex with its interacting proteins.
# Increasing concentrations of a biotinylated form of the compound were incubated for two hours with U2OS lysates (0.6 mg/ml) derived from the U2OS cell line. Streptavidin-conjugated agarose beads were utilized to pull down the biotinylated compound in complex with its interacting proteins. Pre-cleared streptavidin beads were added to each reaction mixture and incubated overnight at 4° C. The beads were washed and blotted with SDS-PAGE loading buffer and run on a 10% acrylamide denaturing gel. […] Western blotting was performed using an anti-Plk2 antibody.
# [9] = tested on: U2OS osteosarcoma cells; assay: Induction of apoptosis in U2OS cells (Caspase Glo, Cell Titer Blue); assay type: cell-based; settings: 24 hours, FIG. 3
# Experimental: U2OS cells were treated with increasing concentrations of the compound for 24 hours. Cell viability was measured by incubating cells with Cell Titer Blue reagent at 37° C. for 3 hours under 5% CO2. Thereafter the cells were incubated with Caspase Glo reagent for 1 hour at room temperature to assay induction of Caspase 3/7 activity.
# Cell viability was measured by incubating cells with Cell Titer Blue reagent (Promega) at 37° C. for 3 hours under 5% CO2. Thereafter the cells were incubated with Caspase Glo reagent (Promega) for 1 hour at room temperature to assay induction of Caspase 3/7 activity.
# [10] = molecular target: T1, PLK2; assay: Kinase profiling; assay type: biochemical; settings: 10 μM ATP
# [11] = molecular target: FLT3 (D835Y) (Homo sapiens (Human), UniProt P36888, D835Y); assay: Kinase profiling; assay type: biochemical; settings: 10 μM ATP
# [12] = molecular target: recombinant Plk1 (Homo sapiens (Human), UniProt P53350)
# Sequence of recombinant Plk1 (P53350 whole entry): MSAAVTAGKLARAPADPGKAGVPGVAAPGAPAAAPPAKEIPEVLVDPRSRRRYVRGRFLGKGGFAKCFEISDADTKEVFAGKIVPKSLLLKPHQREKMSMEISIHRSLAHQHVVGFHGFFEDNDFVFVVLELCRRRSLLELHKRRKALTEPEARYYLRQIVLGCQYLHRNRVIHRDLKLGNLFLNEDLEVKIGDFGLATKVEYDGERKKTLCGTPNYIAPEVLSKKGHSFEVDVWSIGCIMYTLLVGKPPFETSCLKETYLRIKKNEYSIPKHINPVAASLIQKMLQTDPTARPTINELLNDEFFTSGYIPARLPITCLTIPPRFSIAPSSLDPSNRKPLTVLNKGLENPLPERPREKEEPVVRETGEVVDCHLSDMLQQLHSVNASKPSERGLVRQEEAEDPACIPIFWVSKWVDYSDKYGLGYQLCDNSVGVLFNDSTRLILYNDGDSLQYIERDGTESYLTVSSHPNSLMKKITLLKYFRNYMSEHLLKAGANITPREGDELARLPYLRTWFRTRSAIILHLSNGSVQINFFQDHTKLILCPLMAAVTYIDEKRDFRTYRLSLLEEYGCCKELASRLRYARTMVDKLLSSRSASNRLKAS
# [13] = tested on: U2OS osteosarcoma cells; assay: Spindle staining of U2OS cells (anti-alpha tubulin, fluorescent microscopy); assay type: cell-based; settings: 1 uM, 24 hrs
# Experimental: The cells were fixed in 4% paraformaldehyde and stained with anti-alpha tubulin antibodies conjugated with FITC followed by 5 μg/ml […] staining. The coverslips were visualized by fluorescent microscopy using an Olympus microscope at 100× magnification equipped with the Insight digital camera system.
# [14] = tested on: RAJI; assay: Viable cell count GI50 (Table 4); assay type: cell-based; settings: B-Cell, 96 h continuous treatment, trypan blue
# Experimental: as §4
# [15] = tested on: HELA; assay: Viable cell count GI50 (Table 4); assay type: cell-based; settings: Cervical, 96 h continuous treatment, trypan blue
# Experimental: as §4
# [16] = tested on: GRANTA-519; assay: Viable cell count GI50 (Table 4); assay type: cell-based; settings: GRANTA-519, Mantle Cell Lymphoma; 96 h continuous treatment, trypan blue
# Experimental: as §4
# [17] = tested on: BT474; assay: Viable cell count GI50 (Table 4); assay type: cell-based; settings: BT474, Breast (Erbb2+); 96 h continuous treatment, trypan blue
# Experimental: as §4
# [18] = tested on: SK-MEL-28; assay: Viable cell count GI50 (Table 4); assay type: cell-based; settings: SK-MEL-28, Melanoma; 96 h continuous treatment, trypan blue
# Experimental: as §4
# [19] = tested on: U2OS; assay: Viable cell count GI50 (Table 4); assay type: cell-based; settings: Osteosarcoma, 96 h continuous treatment, trypan blue
# Experimental: as §4
# [20] = tested on: U87; assay: Viable cell count GI50 (Table 4); assay type: cell-based; settings: U87, Glioblastoma; 96 h continuous treatment, trypan blue
# Experimental: as §4
# [21] = molecular target: recombinant Plk3 (Homo sapiens (Human), UniProt Q9H4B4); assay: Plk kinase inhibition assay (32P-ATP, casein); assay type: biochemical; settings: 5 μM ATP, FIG. 1
# Sequence of recombinant Plk3 (Q9H4B4 whole entry): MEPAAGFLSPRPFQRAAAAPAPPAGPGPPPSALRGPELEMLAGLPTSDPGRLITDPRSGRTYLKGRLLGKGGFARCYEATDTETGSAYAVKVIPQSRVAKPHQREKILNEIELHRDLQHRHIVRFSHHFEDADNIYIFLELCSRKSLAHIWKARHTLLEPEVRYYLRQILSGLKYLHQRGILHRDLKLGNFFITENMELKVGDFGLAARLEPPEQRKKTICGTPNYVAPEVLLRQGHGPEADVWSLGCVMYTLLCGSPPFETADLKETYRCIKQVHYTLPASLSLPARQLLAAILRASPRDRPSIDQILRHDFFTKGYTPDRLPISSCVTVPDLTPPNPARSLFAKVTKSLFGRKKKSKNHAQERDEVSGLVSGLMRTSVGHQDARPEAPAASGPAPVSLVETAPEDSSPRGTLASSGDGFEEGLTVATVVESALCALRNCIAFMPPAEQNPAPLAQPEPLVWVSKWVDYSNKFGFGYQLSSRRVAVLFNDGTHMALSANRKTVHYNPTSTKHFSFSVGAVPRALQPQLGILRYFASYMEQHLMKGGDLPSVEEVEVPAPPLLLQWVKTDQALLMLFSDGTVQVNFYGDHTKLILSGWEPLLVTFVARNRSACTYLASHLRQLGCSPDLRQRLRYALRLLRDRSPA
# Experimental: (§5) Ten ng of recombinant Plk1, Plk2, Plk3 or Plk4 kinase were incubated with the indicated concentrations of compound for 30 minutes at room temperature. Kinase reactions were started by the addition of substrate mix (5 μM ATP, 10 μCi γ^32P-ATP, 1 μg α-casein, 10 mM MgCl2) for 15 minutes at 30° C. Reactions were stopped by 3% phosphoric acid, spotted on PE30 filtermat, washed, dried and subjected to scintillation counting. Data is plotted (after background subtraction) using GraphPad Prism4 software as a non-linear regression plot with variable slope to obtain IC50 values.
# as §5, with “Kinase” for “Ten ng of recombinant Plk1, Plk2, Plk3 or Plk4 kinase were incubated with the indicated concentrations of compound for 30 minutes at room temperature. Kinase”
# [22] = molecular target: recombinant Plk4 (Homo sapiens (Human), UniProt O00444); assay: Plk kinase inhibition assay (32P-ATP, casein); assay type: biochemical
# Sequence of recombinant Plk4 (O00444 whole entry): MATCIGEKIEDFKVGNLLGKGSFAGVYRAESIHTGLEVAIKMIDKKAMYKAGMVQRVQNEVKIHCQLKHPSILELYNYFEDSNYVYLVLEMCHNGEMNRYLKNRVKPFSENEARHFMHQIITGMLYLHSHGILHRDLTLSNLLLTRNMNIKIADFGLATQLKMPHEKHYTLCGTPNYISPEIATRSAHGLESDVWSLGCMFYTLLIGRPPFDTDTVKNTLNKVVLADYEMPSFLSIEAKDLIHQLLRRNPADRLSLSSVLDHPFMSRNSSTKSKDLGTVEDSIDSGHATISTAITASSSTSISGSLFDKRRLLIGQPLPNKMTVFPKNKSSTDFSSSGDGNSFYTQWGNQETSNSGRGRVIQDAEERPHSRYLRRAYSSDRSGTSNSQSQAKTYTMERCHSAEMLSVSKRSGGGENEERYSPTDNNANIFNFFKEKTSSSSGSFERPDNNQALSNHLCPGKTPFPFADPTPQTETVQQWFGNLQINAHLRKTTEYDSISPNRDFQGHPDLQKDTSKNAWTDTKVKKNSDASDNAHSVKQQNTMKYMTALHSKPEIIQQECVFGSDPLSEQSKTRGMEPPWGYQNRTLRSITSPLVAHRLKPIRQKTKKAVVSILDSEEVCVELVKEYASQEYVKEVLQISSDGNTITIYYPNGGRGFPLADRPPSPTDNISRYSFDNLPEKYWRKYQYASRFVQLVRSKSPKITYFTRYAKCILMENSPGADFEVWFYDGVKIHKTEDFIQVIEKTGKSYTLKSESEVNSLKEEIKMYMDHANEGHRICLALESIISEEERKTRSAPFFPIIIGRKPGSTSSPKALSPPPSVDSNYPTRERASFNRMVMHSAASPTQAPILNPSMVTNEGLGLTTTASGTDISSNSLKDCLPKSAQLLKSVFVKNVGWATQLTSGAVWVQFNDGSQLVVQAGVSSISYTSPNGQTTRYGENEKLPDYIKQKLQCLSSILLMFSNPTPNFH
# Experimental: as §5
# as §5, with “Kinase” for “Ten ng of recombinant Plk1, Plk2, Plk3 or Plk4 kinase were incubated with the indicated concentrations of compound for 30 minutes at room temperature. Kinase”
# [23] = molecular target: T1, PLK2; assay: Plk kinase inhibition assay (32P-ATP, casein); assay type: biochemical; settings: 5 μM ATP, FIG. 1
# Experimental: as §5
# as §5, with “Kinase” for “Ten ng of recombinant Plk1, Plk2, Plk3 or Plk4 kinase were incubated with the indicated concentrations of compound for 30 minutes at room temperature. Kinase”
# [24] = molecular target: RSK1 (Homo sapiens (Human), UniProt Q15418); assay: biochemical
# Sequence of RSK1 (Q15418 whole entry): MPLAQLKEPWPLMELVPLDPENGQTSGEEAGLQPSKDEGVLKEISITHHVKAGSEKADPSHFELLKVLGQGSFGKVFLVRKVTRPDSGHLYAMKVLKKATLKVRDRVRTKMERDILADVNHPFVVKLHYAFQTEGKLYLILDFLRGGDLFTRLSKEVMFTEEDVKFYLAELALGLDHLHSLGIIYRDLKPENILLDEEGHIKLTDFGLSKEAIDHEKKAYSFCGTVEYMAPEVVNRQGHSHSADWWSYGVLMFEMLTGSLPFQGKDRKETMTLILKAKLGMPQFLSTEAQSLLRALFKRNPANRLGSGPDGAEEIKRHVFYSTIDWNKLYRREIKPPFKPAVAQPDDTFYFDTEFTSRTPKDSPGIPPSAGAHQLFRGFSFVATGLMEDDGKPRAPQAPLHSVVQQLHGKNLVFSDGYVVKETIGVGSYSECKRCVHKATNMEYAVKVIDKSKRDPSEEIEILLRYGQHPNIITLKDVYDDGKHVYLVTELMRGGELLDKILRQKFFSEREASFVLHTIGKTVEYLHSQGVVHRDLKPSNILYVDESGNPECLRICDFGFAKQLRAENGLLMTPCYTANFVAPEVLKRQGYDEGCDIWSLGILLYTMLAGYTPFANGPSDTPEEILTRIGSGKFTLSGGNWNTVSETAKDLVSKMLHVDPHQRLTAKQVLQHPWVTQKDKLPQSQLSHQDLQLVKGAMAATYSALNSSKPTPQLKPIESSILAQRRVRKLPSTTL
# [25] = molecular target: FGFR3 (Homo sapiens (Human), UniProt P22607); assay: Kinase profiling; assay type: biochemical; settings: 10 μM ATP
# Sequence of FGFR3 (P22607 23-806): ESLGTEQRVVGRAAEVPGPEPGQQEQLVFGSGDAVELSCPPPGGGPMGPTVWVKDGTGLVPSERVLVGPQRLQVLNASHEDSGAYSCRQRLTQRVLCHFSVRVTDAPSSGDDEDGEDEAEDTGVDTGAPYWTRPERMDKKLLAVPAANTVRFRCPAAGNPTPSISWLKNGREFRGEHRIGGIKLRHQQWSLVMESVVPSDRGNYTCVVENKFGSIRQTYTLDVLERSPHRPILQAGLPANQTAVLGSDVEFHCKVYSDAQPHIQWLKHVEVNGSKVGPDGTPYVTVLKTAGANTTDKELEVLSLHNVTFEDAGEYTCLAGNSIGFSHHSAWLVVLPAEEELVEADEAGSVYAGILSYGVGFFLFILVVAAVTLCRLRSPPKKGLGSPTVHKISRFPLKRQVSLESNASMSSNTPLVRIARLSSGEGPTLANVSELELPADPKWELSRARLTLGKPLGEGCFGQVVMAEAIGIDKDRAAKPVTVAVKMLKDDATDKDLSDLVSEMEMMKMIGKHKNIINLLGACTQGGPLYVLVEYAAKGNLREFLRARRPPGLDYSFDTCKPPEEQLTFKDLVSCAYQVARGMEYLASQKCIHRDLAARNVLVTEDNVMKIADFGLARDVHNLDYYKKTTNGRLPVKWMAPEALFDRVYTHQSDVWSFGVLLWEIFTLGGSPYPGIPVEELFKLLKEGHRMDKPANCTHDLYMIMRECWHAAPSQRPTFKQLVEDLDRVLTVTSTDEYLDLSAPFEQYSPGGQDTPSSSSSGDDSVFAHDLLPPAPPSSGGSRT
# [26] = molecular target: PBK/TOPK (Homo sapiens (Human), UniProt Q96KB5); assay: Kinase profiling; assay type: biochemical; settings: 10 μM ATP
# Sequence of PBK/TOPK (Q96KB5 whole entry): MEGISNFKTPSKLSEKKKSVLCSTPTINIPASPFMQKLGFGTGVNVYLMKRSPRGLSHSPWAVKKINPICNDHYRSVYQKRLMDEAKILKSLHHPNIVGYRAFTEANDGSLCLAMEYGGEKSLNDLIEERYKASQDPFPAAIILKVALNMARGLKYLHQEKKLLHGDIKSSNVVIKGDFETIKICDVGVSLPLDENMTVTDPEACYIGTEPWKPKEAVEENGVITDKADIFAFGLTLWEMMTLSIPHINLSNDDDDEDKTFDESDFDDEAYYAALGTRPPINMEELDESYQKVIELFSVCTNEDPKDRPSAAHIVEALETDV
# [27] = molecular target: WNK2 (Homo sapiens (Human), UniProt Q9Y3S1); assay: Kinase profiling; assay type: biochemical; settings: 10 μM ATP
# [28] = 100 mg/kg intraperitoneally, monitored over 7 days
compound,measurement,setting,value
"CC[C@@H]1C(=O)N(C)c2cnc(Nc3ccc(C(=O)NC4CCN(C)CC4)cc3OC)nc2N1C1CCCC1 [BI-2536, reference compound]",death of mice,"[1]; female, CD-1, mouse, in vivo, 7 days",two mice died within 24 hours while the third mouse died within 72 hours
"Cn1c(=O)c(S(=O)(=O)c2ccc(F)cc2)cc2cnc(Nc3cnc4[nH]ccc4c3)nc21 [Example 12, 2-(1H-pyrrolo[2,3-b]pyridin-5-ylamino)-6-(4-fluorophenylsulfonyl)-8-methylpyrido[2,3-d]pyrimidin-7(8H)-one]",melting point,,274 to 280 °C
same,IC50,[2],< 1 µM
same,IC50,[3],< 1 µM
same,killing of normal cells,[4],did not kill the normal cells
same,killing of normal cells,[5],did not kill the normal cells
"Cn1c(=O)c(S(=O)(=O)c2ccc(F)cc2F)cc2cnc(Nc3ccc4[nH]ccc4c3)nc21 [Example 39, 2-(1H-indol-5-ylamino)-6-(2,4-difluorophenylsulfonyl)-8-methylpyrido[2,3-d]pyrimidin-7(8H)-one]",GI50,[6],> 5 µM
same,concentration inducing apoptosis in tumor cells,[7],approximately 100 nM
same,competition of Plk2 / compound-biotin interaction by free compound,[8],readily competed out
same,cell viability,[9]; Cell Titer Blue,dose-dependent decrease in cell viability
same,induction of apoptosis,[9],induces apoptosis of U2OS osteosarcoma cells in a dose-dependent fashion
same,IC50,[10],0.201 µM
same,IC50,[11],8.85 µM
same,inhibitory activity against PLK-1,[12],little or no inhibitory activity
same,treated cells mitotically arrested with multipolar spindles,[13],greater than 95%
same,signs of toxicity,[1]; [28],No signs of toxicity
same,survival of mice,[1]; [28],100%
same,weight loss,[1]; [28],No weight loss
same,survival of mice,"[1]; 200 mg/kg, for >10 days after injection",100%
same,GI50,[14],0.05 µM
same,GI50,[15],0.05 µM
same,GI50,[16],0.04 µM
same,GI50,[17],0.1 µM
same,GI50,[18],0.2 µM
same,GI50,[19],0.05 µM
same,GI50,[20],0.2 µM
same,inhibitory activity against PLK-3,[21],little or no inhibitory activity
same,inhibitory activity against PLK-4,[22],little or no inhibitory activity
same,inhibitory activity against PLK-2,[23],potent inhibitor
same,IC50,[24],4.25 µM
same,IC50,[25],9 µM
"Cn1c(=O)c(S(=O)(=O)c2ccc(F)cc2F)cc2cnc(Nc3ccc4[nH]ncc4c3)nc21 [Example 40, 2-(1H-indazol-5-ylamino)-6-(2,4-difluorophenylsulfonyl)-8-methylpyrido[2,3-d]pyrimidin-7(8H)-one]",IC50,[2],10 to 25 µM
same,IC50,[3],10 to 25 µM
same,killing of normal cells,[4],did not kill the normal cells
same,killing of normal cells,[5],did not kill the normal cells
"CC(C)(C)OC(=O)N1CCN(c2ccc(Nc3ncc4cc(S(=O)(=O)c5ccccc5)c(=O)n(C5CCCC5)c4n3)nc2)CC1 [Example 65, 2-(5-(4-tert-butoxycarbonylpiperazin-1-yl)pyridin-2-ylamino)-8-cyclopentyl-6-(phenylsulfonyl)pyrido[2,3-d]pyrimidin-7(8H)-one]",melting point,,115 to 116 °C
same,IC50,[2],> 100 µM
same,IC50,[3],10 to 25 µM
"CSc1ncc2cc(S(=O)(=O)c3ccccc3)c(=O)n(C3CCCC3)c2n1 [Example 67, 8-cyclopentyl-2-(methylsulfanyl)-6-(phenylsulfonyl)pyrido[2,3-d]pyrimidin-7(8H)-one]",melting point,,184 to 185 °C
same,IC50,[2],50 to 100 µM
same,IC50,[3],50 to 100 µM
"CSc1ncc2cc(S(=O)(=O)c3ccccc3)c(=O)[nH]c2n1 [Example 68, 2-(methylsulfanyl)-6-(phenylsulfonyl)pyrido[2,3-d]pyrimidin-7(8H)-one]",melting point,,280 °C (dec.)
same,IC50,[2],> 100 µM
same,IC50,[3],> 100 µM
"COC[C@H]1OC(=O)c2coc3c2[C@@]1(C)C1=C(C3=O)[C@@H]2CCC(=O)[C@@]2(C)C[C@H]1OC(C)=O [Wortmanin, wortmanin, reference compound]",inhibitory activity against PLK-1,[12],nanomolar inhibitory activity
same,inhibitory activity against PLK-3,[21],nanomolar inhibitory activity
same,inhibitory activity against PLK-2,[23],nanomolar inhibitory activity
Staurosporine,IC50,[26],0.433 µM
same,IC50,[27],8.09 µM
